Source: ChEMBL document CHEMBL5727600, “1,4-dicarbonyl-piperidyl derivatives” (2020)

What was measured:
[1] = biological target: T1, Poly [ADP-ribose] polymerase tankyrase-1 (Homo sapiens, UniProt O95271); assay: Biochemical Activity Assay: TNKS 1 and 2: The activity ELISA is performed in 384 well Glutathione coated microtiter plates (Express capture Glutathione coated plate, Biocat, Heidelberg, Germany). The plates are pre-equilibrated with PBS. Then the plates are incubated with 50 μl 20 ng/well GST-tagged Tnks-1 (1023-1327 aa, prepared in-house), respectively GST-tagged Tnks-2 (873-1166 aa, prepared in-house) in assay buffer (50 mM HEPES, 4 mM Mg-chloride, 0.05% Pluronic F-68, 2 mM DTT, pH 7.7) overnight at 4° C. The plates are washed 3 times with PBS-Tween-20. The wells are blocked by incubation at room temperature for 20 minutes with 50 μl blocking buffer (PBS, 0.05% Tween-20, 0.5% BSA). Afterwards the plates are washed 3 times with PBS-Tween-20. The enzymatic reaction is performed in 50 μl reaction solution (50 mM HEPES, 4 mM Mg-chloride, 0.05% Pluronic F-68, 1.4 mM DTT, 0.5% DMSO, pH 7.7) with 10 μM bio-NAD (Biolog, Life science Inst., Bremen, Germany) as co-substrate in the absence or presence of the test compound (10 dilution concentrations) for 1 hour at 30° C. The reaction is stopped by 3 times washing with PBS-Tween-20. For the detection 50 μl of 20 ng/μl Streptavidin, HRP conjugate (MoBiTec, Göttingen, Germany) in PBS/0.05% Tween-20/0.01% BSA are added and the plates are incubated for 30 minutes at room temperature. […]
T1 sequence (O95271 whole entry): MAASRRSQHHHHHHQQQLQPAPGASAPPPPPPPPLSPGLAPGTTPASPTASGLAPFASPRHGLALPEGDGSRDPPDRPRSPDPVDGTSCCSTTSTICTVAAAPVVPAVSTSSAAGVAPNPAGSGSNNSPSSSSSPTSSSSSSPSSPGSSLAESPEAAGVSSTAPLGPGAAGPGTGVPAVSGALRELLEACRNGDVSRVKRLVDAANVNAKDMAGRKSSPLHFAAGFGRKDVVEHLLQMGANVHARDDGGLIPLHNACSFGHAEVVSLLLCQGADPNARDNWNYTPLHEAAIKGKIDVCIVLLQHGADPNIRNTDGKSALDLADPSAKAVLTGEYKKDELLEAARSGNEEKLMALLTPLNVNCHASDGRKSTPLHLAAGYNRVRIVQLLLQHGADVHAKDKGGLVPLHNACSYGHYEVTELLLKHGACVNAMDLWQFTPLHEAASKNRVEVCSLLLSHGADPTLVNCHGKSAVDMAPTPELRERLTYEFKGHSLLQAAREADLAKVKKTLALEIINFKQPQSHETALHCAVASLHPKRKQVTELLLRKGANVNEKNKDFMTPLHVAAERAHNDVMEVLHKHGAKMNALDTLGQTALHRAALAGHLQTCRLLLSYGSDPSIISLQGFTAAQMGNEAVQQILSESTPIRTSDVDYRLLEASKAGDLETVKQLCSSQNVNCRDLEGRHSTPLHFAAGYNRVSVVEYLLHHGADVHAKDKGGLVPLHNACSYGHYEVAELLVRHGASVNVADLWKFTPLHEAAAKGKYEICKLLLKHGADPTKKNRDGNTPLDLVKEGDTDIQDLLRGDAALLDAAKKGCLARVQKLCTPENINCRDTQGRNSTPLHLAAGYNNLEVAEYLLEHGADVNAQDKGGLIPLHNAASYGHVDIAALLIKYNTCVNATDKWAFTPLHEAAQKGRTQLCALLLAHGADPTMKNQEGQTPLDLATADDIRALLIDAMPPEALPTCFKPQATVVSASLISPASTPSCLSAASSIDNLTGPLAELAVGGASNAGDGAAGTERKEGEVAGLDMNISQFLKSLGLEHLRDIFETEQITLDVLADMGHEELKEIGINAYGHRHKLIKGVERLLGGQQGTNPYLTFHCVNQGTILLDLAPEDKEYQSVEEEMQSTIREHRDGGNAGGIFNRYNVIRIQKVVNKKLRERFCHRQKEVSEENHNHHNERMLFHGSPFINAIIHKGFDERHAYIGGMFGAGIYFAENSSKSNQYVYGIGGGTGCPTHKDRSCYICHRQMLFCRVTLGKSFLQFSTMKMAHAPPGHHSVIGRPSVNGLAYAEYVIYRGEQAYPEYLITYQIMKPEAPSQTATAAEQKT

[2] = biological target: T2, Poly [ADP-ribose] polymerase tankyrase-2 (Homo sapiens, UniProt Q9H2K2); assay: Biochemical Activity Assay: TNKS 1 and 2: The activity ELISA is performed in 384 well Glutathione coated microtiter plates (Express capture Glutathione coated plate, Biocat, Heidelberg, Germany). The plates are pre-equilibrated with PBS. Then the plates are incubated with 50 μl 20 ng/well GST-tagged Tnks-1 (1023-1327 aa, prepared in-house), respectively GST-tagged Tnks-2 (873-1166 aa, prepared …
T2 sequence (Q9H2K2 whole entry): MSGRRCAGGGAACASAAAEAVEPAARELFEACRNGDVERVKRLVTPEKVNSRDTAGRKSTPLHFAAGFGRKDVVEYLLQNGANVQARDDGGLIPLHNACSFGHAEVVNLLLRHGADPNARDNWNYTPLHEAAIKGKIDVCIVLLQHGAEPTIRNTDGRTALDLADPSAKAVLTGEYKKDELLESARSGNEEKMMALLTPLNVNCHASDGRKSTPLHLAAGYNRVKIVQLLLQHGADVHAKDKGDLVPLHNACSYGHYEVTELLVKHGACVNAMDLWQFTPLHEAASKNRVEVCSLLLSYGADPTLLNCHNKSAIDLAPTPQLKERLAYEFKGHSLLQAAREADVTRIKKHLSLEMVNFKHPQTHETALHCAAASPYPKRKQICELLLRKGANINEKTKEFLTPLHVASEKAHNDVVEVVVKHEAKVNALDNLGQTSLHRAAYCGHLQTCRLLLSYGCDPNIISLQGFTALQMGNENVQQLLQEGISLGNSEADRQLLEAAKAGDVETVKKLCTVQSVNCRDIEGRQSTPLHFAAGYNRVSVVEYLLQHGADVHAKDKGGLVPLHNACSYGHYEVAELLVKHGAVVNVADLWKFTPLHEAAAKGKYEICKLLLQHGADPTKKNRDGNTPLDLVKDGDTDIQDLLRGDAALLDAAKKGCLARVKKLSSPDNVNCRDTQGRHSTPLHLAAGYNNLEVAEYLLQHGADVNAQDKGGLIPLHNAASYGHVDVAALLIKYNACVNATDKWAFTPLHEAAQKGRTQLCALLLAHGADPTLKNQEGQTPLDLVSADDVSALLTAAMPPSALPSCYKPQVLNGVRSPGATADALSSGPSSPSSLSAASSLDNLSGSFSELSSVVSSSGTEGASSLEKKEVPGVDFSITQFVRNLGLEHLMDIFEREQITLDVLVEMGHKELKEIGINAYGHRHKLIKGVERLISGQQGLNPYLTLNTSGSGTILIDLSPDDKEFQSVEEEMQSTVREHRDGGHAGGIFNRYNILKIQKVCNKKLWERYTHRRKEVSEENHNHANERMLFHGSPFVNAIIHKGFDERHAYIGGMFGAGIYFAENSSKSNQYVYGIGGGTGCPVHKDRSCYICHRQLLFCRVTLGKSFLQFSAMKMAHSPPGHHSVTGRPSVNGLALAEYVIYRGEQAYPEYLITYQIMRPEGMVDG

| Compound | IC50 [1] [nM] | IC50 [2] [nM] |
| --- | --- | --- |
| Cc1cc(F)cc2c(=O)[nH]c(C[C@H](C)CC(=O)N3CCC(C(=O)c4cnn(C)c4)CC3)nc12 | 0.31 | 0.2 |
| Cc1cc(F)cc2c(=O)[nH]c(C[C@@H](C)CC(=O)N3CCC(C(=O)c4cnn(C)c4)CC3)nc12 | 0.66 | 0.59 |
